From US4892736A, “Intra-pocket drug delivery devices for treatment of periodontal diseases” (The Forsyth Dental Infirmary for Children, priority 1988, dated 1990) come the findings set out here.

The test deals with cultivable periodontal microorganisms. Put plainly: Concentration of tetracycline necessary to suppress growth of all cultivable periodontal microorganisms (agar plates). As to conditions: anaerobic, 35° C., 5 to 7 days. Type of test: cell-based. As to the method:
Samples containing periodontal organisms taken from deep periodontal pockets of 5 patients were transferred to 10 ml of pre-reduced Ringer's solution, dispersed by 10 seconds of sonic oscillation at an amplitude of 10 microns, and dilutions of 1:20, 1:100, and 1:1000 were prepared. One-tenth milliliter of each dilution was streaked on trypticase soy agar containing 5% sheep blood and 0.3 μg/ml menadione in petri dishes. Identical plates were prepared containing 1, 8, 32, and 64 micrograms/milliliter of tetracycline hydrochloride. Inoculated plates were incubated at 35° C. in an anaerobic atmosphere at 80% nitrogen, 10% hydrogen, and 10% carbon dioxide for 5 to 7 days. Plates from dilutions providing separated colony growth were selected for counting to determine the total colony forming units on primary medium and each associated tetracycline-containing medium. Percentages of organisms grown at each concentration were computed. Values of 21.2%, 3.6%, 0.08%, and 0% were found on plates containing 1, 8, 32, and 64 micrograms/milliliter tetracycline respectively. These observations indicate that no cultivable periodontal organisms grow at tetracycline concentrations of 64 micrograms/milliliter, thereby establishing the primary design parameter for a local drug delivery system for periodontal therapy which would suppress growth of all cultivable periodontal microorganisms with continuous exposure of the organisms to tetracycline.

Structures are written as SMILES. Structures can show the parent of a compound that is named as a salt.

As for `CN(C)C1C(=O)C(C(N)=O)=C(O)C2(O)C(=O)C3=C(O)c4c(O)cccc4C(C)(O)C3CC12` (centres unmarked) [tetracycline, tetracycline hydrochloride], the activity at 1 µg/mL (168 h, 1 microgram/milliliter tetracycline, % of colony forming units on primary medium, read-out: Percentage of organisms grown) amounted to 21.2%. Moreover, for the setting “168 h, 8 micrograms/milliliter tetracycline, % of colony forming units on primary medium, read-out: Percentage of organisms grown”, the activity at 8 µg/mL was 3.6%. In addition, where the note is “168 h, 32 micrograms/milliliter tetracycline, % of colony forming units on primary medium, read-out: Percentage of organisms grown”, the activity at 32 µg/mL amounted to 0.08%. In addition, the activity at 64 µg/mL (168 h, 64 micrograms/milliliter tetracycline, % of colony forming units on primary medium, read-out: Percentage of organisms grown) turned out to be 0%. For the same compound, the MIC (tested 1, 8, 32, 64 micrograms/milliliter, read-out: Concentration at which no cultivable periodontal organisms grow) was 64 µg/mL.
